Experimental data: patent publication US20220089589A1, “SMALL MOLECULE DEGRADERS OF FKBP12 VIA RECRUITMENT OF VON HIPPEL-LINDAU E3 UBIQUITIN LIGASE (VHL) E3 UBIQUITIN LIGASE, AND USES IN dTAG SYSTEMS” (DANA-FARBER CANCER INSTITUTE, INC., priority 2019, published 2022)
“Also recorded” adds a separate entry of the source.

Legend:
Type in all cases: cell-based
[1] = test system: NIH/3T3 cells expressing FKBP12^F36V-KRAS^G12V; test: Anti-proliferation in NIH/3T3 cells expressing FKBP12^F36V-KRAS^G12V by ATPlite assay; conditions: 0.00063-20 μM, 72 hrs, NIH/3T3 expressing FKBP12^F36V-KRAS^G12V
Experimental: (§1) NIH/3T3 cells, that were mock transduced (control) or stably expressing with FKBP12^F36V-KRAS^G12V, were plated in 384-well format, allowed to adhere overnight, and treated with various dTAG molecules from compound stock plates using a JANUS® Workstation pin tool for 72 hrs. To measure cell viability, ATPlite™ was added to wells for 15 minutes at room temperature and luminescence was measured on an EnVision™ 2104 Multilabel Plate Reader.

control NIH/3T3 cells = test: Anti-proliferation in mock transduced (control) NIH/3T3 cells by ATPlite assay; conditions: 0.00063-20 μM, 72 hrs, at high doses
Experimental: as §1

LACZ-FKBP12^F36V = test: Immunoblotting of PATU-8902 LACZ-FKBP12^F36V clone (Example 6); conditions: 50 or 500 nM, 4 hrs
Experimental: (§2) PATU-8902 LACZ-FKBP12^F36V clone was plated in 6-well format, allowed to adhere overnight, and treated with 50 nM and 500 nM dTAG molecules for 4 hrs. Following treatment, cells were lysed in RIPA buffer on ice for 60 minutes. Lysates were clarified by centrifugation at 20,000×g for 10 minutes at 4° C. Immunoblotting was performed to determine changes in protein levels with an Odyssey CLx Imager. The indicated antibodies were employed including HA (hemagglutinin) to monitor LACZ-FKBP12^F36V degradation and α-TUBULIN as a loading control.

FKBP12^F36V-KRAS^G12V [2] = test: Immunoblotting of PATU-8902 FKBP12^F36V-KRAS^G12V; KRAS^−/− clone (Example 8), HA; conditions: 50 or 500 nM, 4 hrs
Experimental: as §2, with “FKBP12^F36V-KRAS^G12V; KRAS^−/−” for “LACZ-FKBP12^F36V”, “HA” for “HA (hemagglutinin)”, “FKBP12^F36V-KRAS^G12V degradation, total and phosphorylated ERK to evaluate changes in ERK signaling, total and phosphorylated AKT to evaluate changes in AKT signaling” for “LACZ-FKBP12^F36V degradation”

pERK = test: Immunoblotting of PATU-8902 FKBP12^F36V-KRAS^G12V; KRAS^−/− clone (Example 8), ERK signaling; conditions: 50 or 500 nM, 4 hrs
Experimental: as §2, with “FKBP12^F36V-KRAS^G12V; KRAS^−/−” for “LACZ-FKBP12^F36V”, “HA” for “HA (hemagglutinin)”, “FKBP12^F36V-KRAS^G12V degradation, total and phosphorylated ERK to evaluate changes in ERK signaling, total and phosphorylated AKT to evaluate changes in AKT signaling” for “LACZ-FKBP12^F36V degradation”

pAKT = test: Immunoblotting of PATU-8902 FKBP12^F36V-KRAS^G12V; KRAS^−/− clone (Example 8), AKT signaling; conditions: 50 or 500 nM, 4 hrs
Experimental: as §2, with “FKBP12^F36V-KRAS^G12V; KRAS^−/−” for “LACZ-FKBP12^F36V”, “HA” for “HA (hemagglutinin)”, “FKBP12^F36V-KRAS^G12V degradation, total and phosphorylated ERK to evaluate changes in ERK signaling, total and phosphorylated AKT to evaluate changes in AKT signaling” for “LACZ-FKBP12^F36V degradation”

[3] = test system: PATU-8902 FKBP12^F36V-KRAS^G12V; KRAS^−/− clone; test: Anti-proliferation via CellTiter-Glo, PATU-8902 FKBP12^F36V-KRAS^G12V; KRAS^−/− clone (Example 12); conditions: 0.000063-2 μM, 72 hrs
Experimental: (§3) PATU-8902 LACZ-FKBP12^F36V or FKBP12^F36V-KRAS^G12V; KRAS^−/− clones were plated in 384-well format, allowed to adhere overnight, and treated with various dTAG molecules from compound stock plates using a JANUS® Workstation pin tool for 72 hrs. To measure cell viability, Cell Tilter-Glo® was added to wells for 15 minutes at r.t. and luminescence was measured on an EnVision™ 2104 Multilabel Plate Reader.

[4] = test system: PATU-8902 FKBP12^F36V-KRAS^G12V; KRAS^−/− clone; test: Cell transformation by growth in ultra-low attachment conditions, PATU-8902 FKBP12^F36V-KRAS^G12V; KRAS^−/− clone (Example 13); conditions: 0.000063-2 μM, 120 hrs
Experimental: (§4) PATU-8902 LACZ-FKBP12^F36V or FKBP12^F36V-KRAS^G12V; KRAS^−/− clones were plated in 384-well format in ultra-low attachment conditions, allowed to form 3D-spheroids overnight, and treated with various dTAG molecules from compound stock plates using a JANUS® Workstation pin tool for 120 hrs. To measure cell transformation, Cell Tilter-Glo® was added to wells for 15 minutes at room temperature and luminescence was measured on an EnVision™ 2104 Multilabel Plate Reader.

FKBP12^F36V-KRAS^G12V [5] = test: Immunoblotting of 293T^WT FKBP12^F36V-KRAS^G12V cells; conditions: 50 or 500 nM, 24 hrs
Experimental: (§5) 293T^WT or 293T^VHL−/− FKBP12^F36V-KRAS^G12V cells were plated in 6-well format, allowed to adhere overnight, and treated with 50 nM and 500 nM dTAG molecules for 24 hrs. Following treatment, cells were lysed in RIPA buffer on ice for 60 minutes. Lysates were clarified by centrifugation at 20,000×g for 10 minutes at 4° C. Immunoblotting was performed to determine changes in protein levels with an Odyssey CLx Imager. The indicated antibodies were employed including HA to monitor FKBP12^F36V-KRAS^G12V degradation and α-TUBULIN as a loading control.

FKBP12^F36V-KRAS^G12V [6] = test: Immunoblotting of 293T^VHL−/− FKBP12^F36V-KRAS^G12V cells; conditions: 50 or 500 nM, 24 hrs
Experimental: as §5

[7] = test system: PATU-8902 FKBP12^F36V-KRAS^G12V; KRAS^−/− clone; test: Anti-proliferation via CellTiter-Glo, PATU-8902 FKBP12^F36V-KRAS^G12V; KRAS^−/− clone (Example 11); conditions: 0.00063-20 μM, 72 hrs
Experimental: (§6) PATU-8902 LACZ-FKBP12^F36V or FKBP12^F36V-KRAS^G12V; KRAS^−/− clones were plated in 384-well format, allowed to adhere overnight, and treated with various dTAG molecules from compound stock plates using a JANUS® Workstation pin tool for 72 hrs. To measure cell viability, CellTilter-Glo® was added to wells for 15 minutes at r.t. and luminescence was measured on an EnVision™ 2104 Multilabel Plate Reader.

[8] = test system: PATU-8902 LACZ-FKBP12^F36V clone; test: Anti-proliferation via CellTiter-Glo, PATU-8902 LACZ-FKBP12^F36V control clone (Example 11); conditions: 0.00063-20 μM, 72 hrs
Experimental: as §6

[9] = test system: PATU-8902 LACZ-FKBP12^F36V clone; test: Anti-proliferation via CellTiter-Glo, PATU-8902 LACZ-FKBP12^F36V control clone (Example 12); conditions: 0.000063-2 μM, 72 hrs
Experimental: as §3

[10] = test system: PATU-8902 LACZ-FKBP12^F36V clone; test: Cell transformation by growth in ultra-low attachment conditions, PATU-8902 LACZ-FKBP12^F36V control clone (Example 13); conditions: 0.000063-2 μM, 120 hrs
Experimental: as §4

FKBP12^F36V-GFP = test: Immunoblotting of EWS502 FKBP12^F36V-GFP cells; conditions: dTAG-13 10-5000 nM, compound 1 50-5000 nM, 24 hrs
Experimental: (§7) EWS502 FKBP12^F36V-GFP and FKBP12^F36V-EWS/FLI; EWS/FLP^−/− cells were plated in 6-well format, allowed to adhere overnight, and treated with (10-5000 nM) dTAG-13 or (50-5000 nM) compound 1 for 24 hrs. Following treatment, cells were lysed in Cell Lysis Buffer (Cell Signaling Technology®) on ice for 60 minutes. Lysates were clarified by centrifugation at 20,000×g for 10 minutes at 4° C. Immunoblotting was performed to determine changes in protein levels upon incubation with the appropriate horseradish peroxidase-conjugated secondary antibodies. The indicated antibodies were employed including HA to monitor FKBP12^F36V-GFP or FKBP12^F36V-EWS/FLI degradation and Vinculin as a loading control.

FKBP12^F36V-EWS/FLI = test: Immunoblotting of EWS502 FKBP12^F36V-EWS/FLI; EWS/FLI^−/− cells; conditions: dTAG-13 10-5000 nM, compound 1 50-5000 nM, 24 hrs, EWS502 cells
Experimental: as §7

Row | Compound | anti-proliferative effects / loss of cell viability (% DMSO control) [1] | anti-proliferative effects on control cells (control NIH/3T3 cells) | degradation of LACZ-FKBP12^F36V (immunoblot) (LACZ-FKBP12^F36V) | degradation of FKBP12^F36V-KRAS^G12V (immunoblot) (FKBP12^F36V-KRAS^G12V [2]) | pERK levels (immunoblot) (pERK) | pAKT levels (immunoblot) (pAKT) | anti-proliferative effects / loss of cell viability (% DMSO control) [3] | loss of cell transformation (3D-spheroids, % DMSO control) [4] | degradation of FKBP12^F36V-KRAS^G12V in 293T^WT cells (immunoblot) (FKBP12^F36V-KRAS^G12V [5]) | degradation of FKBP12^F36V-KRAS^G12V in 293T^VHL−/− cells (immunoblot) (FKBP12^F36V-KRAS^G12V [6]) | anti-proliferative effects / loss of cell viability (% DMSO control) [7] | anti-proliferative effects on LACZ-FKBP12^F36V control clone [8] | anti-proliferative effects on LACZ-FKBP12^F36V control clone [9] | effects on cell transformation of LACZ-FKBP12^F36V control clone [10] | degradation of FKBP12^F36V-GFP (immunoblot) (FKBP12^F36V-GFP) | degradation of FKBP12^F36V-EWS/FLI (immunoblot) (FKBP12^F36V-EWS/FLI)
1 | CC[C@H](C(=O)N1CCCC[C@H]1C(=O)O[C@H](CCc1ccc(OC)c(OC)c1)c1ccccc1OCC(=O)NCCOCCOCCOCC(=O)N[C@H](C(=O)N1C[C@H](O)C[C@H]1C(=O)NCc1ccc(-c2scnc2C)cc1)C(C)(C)C)c1cc(OC)c(OC)c(OC)c1 [dTAG-12] | Effective loss of viability; also recorded: potent anti-proliferative effects | Limited anti-proliferative effects |  |  |  |  |  |  |  |  |  |  |  |  |  | 
2 | CC[C@H](C(=O)N1CCCC[C@H]1C(=O)O[C@H](CCc1ccc(OC)c(OC)c1)c1ccccc1OCC(=O)NCCCCCCC(=O)N[C@H](C(=O)N1C[C@@H](O)C[C@@H]1C(=O)N[C@@H](C)c1ccc(-c2scnc2C)cc1)C(C)(C)C)c1cc(OC)c(OC)c(OC)c1 [Compound 2, (R)-3-(3,4-dimethoxyphenyl)-1-(2-(2-((7-(((S)-1-((2R,4S)-4-hydroxy-2-(((S)-1-(4-(4-methylthiazol-5-yl)phenyl)ethyl)carbamoyl)pyrrolidin-1-yl)-3,3-dimethyl-1-oxobutan-2-yl)amino)-7-oxoheptyl)amino)-2-oxoethoxy)phenyl)propyl (S)-1-((S)-2-(3,4,5-trimethoxyphenyl)butanoyl)piperidine-2-carboxylate] |  |  | Lack of degradation; also recorded: no effect | Lack of degradation; also recorded: no effect | no effect | no effect | little to no loss of viability; also recorded: little to no toxicity | little to no loss of viability; also recorded: limited toxicity at high doses |  |  |  |  |  |  |  | 
3 | CC[C@H](C(=O)N1CCCC[C@H]1C(=O)O[C@H](CCc1ccc(OC)c(OC)c1)c1ccccc1OCC(=O)NCCCCCCOc1cccc2c1C(=O)N(C1CCC(=O)N(C)C1=O)C2=O)c1cc(OC)c(OC)c(OC)c1 (stereo partly drawn) [Compound 5] |  |  | Lack of degradation; also recorded: no effect | Lack of degradation; also recorded: no effect | no effect | no effect | little to no loss of viability; also recorded: little to no toxicity | little to no loss of viability; also recorded: limited toxicity at high doses |  |  |  |  |  |  |  | 
4 | CC[C@H](C(=O)N1CCCC[C@H]1C(=O)O[C@H](CCc1ccc(OC)c(OC)c1)c1ccccc1OCC(=O)NCCCCCCOc1cccc2c1C(=O)N(C1CCC(=O)NC1=O)C2=O)c1cc(OC)c(OC)c(OC)c1 (stereo partly drawn) [dTAG-13, reference compound] | Effective loss of viability; also recorded: potent anti-proliferative effects |  | rapid degradation; also recorded: potent degradation | potent degradation | pronounced diminished levels | pronounced diminished levels | Effective loss of viability; also recorded: potent anti-proliferative effects | Effective loss of viability; also recorded: potent loss of cell transformation | potent degradation | Degradation of mutant KRAS was observed; also recorded: potent degradation | Effective loss of viability; also recorded: potent anti-proliferative effects | limited effects | limited effects | limited effects | Degradation of GFP (control) is observed; also recorded: potent degradation | not
5 | CC[C@H](C(=O)N1CCCC[C@H]1C(=O)O[C@H](CCc1ccc(OC)c(OC)c1)c1ccccc1OCC(=O)NCCOCCOCCOCC(=O)N[C@H](C(=O)N1C[C@H](O)C[C@H]1C(=O)N[C@@H](C)c1ccc(-c2scnc2C)cc1)C(C)(C)C)c1cc(OC)c(OC)c(OC)c1 [dTAG-63] | Effective loss of viability; also recorded: potent anti-proliferative effects | Limited anti-proliferative effects |  |  |  |  |  |  |  |  | Effective loss of viability; also recorded: potent anti-proliferative effects | limited effects |  |  |  | 
